Source: article PMC4721062, “Oxadiazole-2-oxides may have other functional targets, in addition to SjTGR, through which they cause mortality in Schistosoma japonicum” (Parasites & Vectors, 2016)
Read-outs that look alike come from different tables or passages of the source.

Experiments:
adult S. japonicum = experiment: microbe, parasite or virus in culture; assay type: cell-based; conditions: for mortality at 25 µM / killing at 25 µM / killing at 50 µM / killing at 100 µM: Schistosoma japonicum; for mortality at 25 µM: read-out: Mortality of adult worms; for killing at 25 µM / killing at 50 µM / killing at 100 µM / Killing activity 24hr / Killing activity 48hr / Killing activity 72hr: adult worms; for Killing activity 24hr / Killing activity 48hr / Killing activity 72hr: 10 μM
Summary of the method: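 Adult worm pairs recovered by portal perfusion from ICR mice 35 days after infection with 50 cercariae, cultured in RPMI 1640 (pH 7.5, 20 mM HEPES, 10% FBS) at 37 °C, 5% CO2. Oxadiazole-2-oxides at 10, 25, 50, 100 μM; motility and survival scored microscopically at 24, 48, 72 h, death being no movement over 2 min; three independent experiments averaged.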

juvenile S. japonicum = experiment: microbe, parasite or virus in culture; assay type: cell-based; conditions: for killing at 2 µM / killing at 5 µM / killing at 50 µM / Killing activity 24hr / Killing activity 48hr / Killing activity 72hr: juvenile worms; for Killing activity 24hr / Killing activity 48hr / Killing activity 72hr: 10 μM
Summary of the method: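 Juvenile S. japonicum, 20–30 tail-shed cercariae per well, were exposed to compounds at 2, 5, 10 and 50 μM in RPMI 1640 with 10% FBS and HEPES. Survival was scored microscopically at 24, 48 and 72 h, with death defined by disrupted internal structure or tegument or 1 min without motility. % D is dead/total, averaged over three experiments.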

[1] = 24 h, read-out: Killing activity 24hr
[2] = 48 h, read-out: Killing activity 48hr
[3] = 72 h, read-out: Killing activity 72hr
[4] = Schistosoma japonicum, 24 h, read-out: Killing activity 24hr
[5] = Schistosoma japonicum, 48 h, read-out: Killing activity 48hr
[6] = Schistosoma japonicum, 72 h, read-out: Killing activity 72hr

SMILES | mortality at 25 µM (adult S. japonicum; 24 h) | killing at 25 µM (adult S. japonicum; [1]) | killing at 25 µM (adult S. japonicum; [2]) | killing at 25 µM (adult S. japonicum; [3]) | killing at 50 µM (adult S. japonicum; [1]) | killing at 50 µM (adult S. japonicum; [2]) | killing at 50 µM (adult S. japonicum; [3]) | killing at 100 µM (adult S. japonicum; [1]) | killing at 100 µM (adult S. japonicum; [2]) | killing at 100 µM (adult S. japonicum; [3]) | Killing activity 24hr (adult S. japonicum; 24 h) | Killing activity 48hr (adult S. japonicum; 48 h) | Killing activity 72hr (adult S. japonicum; 72 h) | killing at 2 µM (juvenile S. japonicum; [4]) | killing at 2 µM (juvenile S. japonicum; [5]) | killing at 2 µM (juvenile S. japonicum; [6]) | killing at 5 µM (juvenile S. japonicum; [4]) | killing at 5 µM (juvenile S. japonicum; [5]) | killing at 5 µM (juvenile S. japonicum; [6]) | killing at 50 µM (juvenile S. japonicum; [4]) | further results
N#Cc1c(-c2ccc(COc3ccc(C=O)cc3)cc2)no[n+]1[O-] [Compound 26] | > 75% | 85.7% | 100% | 100% | 100% | 100% | 100% | 100% | 100% | 100% | n.e. | n.e. | 16.7%D | 36.4% | 36.4% | 50.9% | 48.9% | 48.9% | 53.2% | 46.3% | killing at 50 µM (juvenile S. japonicum; [5]): 63.4%; killing at 50 µM (juvenile S. japonicum; [6]): 85.4%; Killing activity 24hr (juvenile S. japonicum; 24 h): 56.1%D; Killing activity 48hr (juvenile S. japonicum; 48 h): 61.0%D; Killing activity 72hr (juvenile S. japonicum; 72 h): 80.5%D
Cc1ccc2cccc(OCc3ccc(-c4no[n+]([O-])c4C#N)cc3)c2n1 [Compound 28] | > 75% | 100% | 100% | 100% | 100% | 100% | 100% | 100% | 100% | 100% | 57.1%D | 57.1%D | 71.4%D | 8.2% | 13.7% | 19.2% | 14.8% | 21.6% | 26.1% | 31.9% | mortality at 50 µM (juvenile S. japonicum; Schistosoma japonicum, 24 h, read-out: Mortality of juvenile worms): < 30%; killing at 50 µM (juvenile S. japonicum; [5]): 36.2%; killing at 50 µM (juvenile S. japonicum; [6]): 39.1%; Killing activity 24hr (juvenile S. japonicum; 24 h): 14.5%D; Killing activity 48hr (juvenile S. japonicum; 48 h): 17.4%D; Killing activity 72hr (juvenile S. japonicum; 72 h): 30.4%D
